Reference: patent US11925629B2, “Heterocyclic inhibitors of ERK1 and ERK2 and their use in the treatment of cancer” (Asana Biosciences, LLC, priority 2015, dated 2024)
pIC50: −log10 of the molar value.

Key:
Assay type in all cases: cell-based, human
[1] = tested on: HCT116 (colorectal carcinoma, K Ras G13D) cells; experiment: Cell proliferation (Alamar Blue) assay, HCT116; conditions: Homo sapiens, HCT-116, HCT116 cells
In short: (§1)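 Fluorescence read-out (ex 540 nm, em 590 nm) after 1-3 h with 1× Alamar Blue, following 72 h compound exposure at 37° C./5% CO2. Compounds tested at typically 0.0005 to 10 uM, 3-fold steps; IC50 by sigmoidal dose-response (variable slope).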

[2] = tested on: HT-29 (colorectal carcinoma, B-RafV600E) cells; experiment: Cell proliferation (Alamar Blue) assay, HT-29; conditions: Homo sapiens, HT-29, HT29 cells
In short: as §1

[3] = tested on: phosphorylation of RSK1(S380) (the downstream target of ERK1/2); experiment: Phospho-RSK1(S380) ELISA assay in HT-29 cells; conditions: Homo sapiens, HT-29, HT29 cells, phospho-RSK1(S380); read-out: Mechanistic Cell Assay RSK1 Phos HT29 IC50
Description: Phospho-RSK1(S380) ELISA Assay
HT-29 cells (colorectal carcinoma, B-RafV600E); obtained from ATCC, USA) were seeded (60,000 cells/well) in a 96-well plate and incubated at 37° C./5% CO2 overnight and then treated with desired compound dilutions for 2 h. Medium was removed and cells were rinsed once with ice-cold 1×PBS, then 0.070 mL ice-cold 1× cell lysis buffer containing 1 mM PMSF was added to each well and the plate was incubated on a shaker for 2 h and 30 min at 4° C. The plate was then centrifuged for 20 min (×4000 rpm) at 4° C. and the supernatant was transferred to a new plate. Cell lysates were diluted with sample diluent at a ratio of 1:1. The ELISA was then carried out following the manufacturer's protocol (PathScan® phospho-RSK1(Ser380) Sandwich ELISA Kit, Cell Signaling Technologies). The plate was read at 450 nm within 30 min after adding STOP solution. The IC50 values were subsequently determined using a sigmoidal dose-response curve (variable slope) in GraphPad Prism® 5 software.

pIC50 [1]	pIC50 [2]	pIC50 [3]	SMILES
5.60 to 6.30	≥ 7.00	6.60 to 7.00	Cc1cnc(NC2CCOCC2)nc1-n1cnc(C(=O)N[C@@H](CN)c2cccc(Cl)c2)c1 (single isomer, unassigned) [Compound 225b]
< 5.60	< 5.60	< 5.60	O=C(Nc1cnn(-c2ccnc(Nc3ccccc3)n2)c1)N[C@H](CO)c1cccc(Cl)c1 [Example 12, (S)-1-(1-(3-chlorophenyl)-2-hydroxy-ethyl)-3-(1-(2-(phenyl-amino)pyrimidin-4-yl)-1H-pyrazol-4-yl) urea]
< 5.60	< 5.60	< 5.60	CN(C(=O)Nc1cnn(-c2ccnc(NC3CC3)n2)c1)[C@H](CO)c1ccccc1 [Example 18, (S)-3-(1-(2-(cyclopropyl-amino)pyrimidin-4-yl)-1H-pyrazol-4-yl)-1-(2-hydroxy-1-phenylethyl)-1-methylurea]
< 5.60	< 5.60	< 5.60	O=C(Nc1cnn(-c2ccnc(Nc3ccc4c(c3)OCO4)n2)c1)N[C@H](CO)c1cccc(Cl)c1 [Example 21, (S)-1-(1-(2-(benzo[d][1,3]dioxol-5-ylamino)-pyrimidin-4-yl)-1H-pyrazol-4-yl)-3-(1-(3-chlorophenyl)-2-hydroxyethyl) urea]
< 5.60	5.60 to 6.30	< 5.60	Cc1cnc(Nc2cccnc2)nc1-n1cc(NC(=O)N[C@H](CO)c2cccc(Cl)c2)cn1 [Example 23, (S)-1-(1-(3-chlorophenyl)-2-hydroxy-ethyl)-3-(1-(5-methyl-2-(pyridin-3-yl-amino)pyrimidin-4-yl)-1H-pyrazol-4-yl)urea]
5.60 to 6.30	6.30 to 6.60	5.60 to 6.30	Cc1cnc(Nc2ccc(F)cc2Cl)nc1-n1ccc(C(=O)NC(CO)c2cccc(Cl)c2)c1 (stereo not drawn) [Example 31, 1-(2-((2-chloro-4-fluorophenyl)amino)-5-methyl-pyrimidin-4-yl)-N-(1-(3-chlorophenyl)-2-hydroxy-ethyl)-1H-pyrrole-3-carboxamide]
< 5.60	< 5.60	5.60 to 6.30	Cc1cnc(Nc2ccc(F)cc2Cl)nc1-n1ccc(C(=O)NC(CO)c2ccccc2)c1 (stereo not drawn) [Example 32, 1-(2-((2-chloro-4-fluorophenyl)amino)-5-methyl-pyrimidin-4-yl)-N-(2-hydroxy-1-phenylethyl)-1H-pyrrole-3-carboxamide]
< 5.60	< 5.60	< 5.60	C#Cc1cccc(Nc2nccc(-n3cc(NC(=O)N[C@H](CO)c4cccc(Cl)c4)cn3)n2)c1 [Example 38, (S)-1-(1-(3-chlorophenyl)-2-hydroxy-ethyl)-3-(1-(2-((3-ethynyl-phenyl)amino)pyrimidin-4-yl)-1H-pyrazol-4-yl)urea]
6.30 to 6.60	6.30 to 6.60	5.60 to 6.30	Cc1cnc(Nc2ccc3c(c2)OCO3)nc1-n1ccc(C(=O)NC(CO)c2cccc(Cl)c2)c1 (stereo not drawn) [Example 42, 1-(2-(benzo[d][1,3]dioxol-5-ylamino)-5-methyl-pyrimidin-4-yl)-N-(1-(3-chloro-phenyl)-2-hydroxy-ethyl)-1H-pyrrole-3-carboxamide]
6.30 to 6.60	6.60 to 7.00	6.30 to 6.60	Cc1cnc(Nc2ccc3c(c2)OCO3)nc1-n1ccc(C(=O)NC(CO)c2ccccc2)c1 (stereo not drawn) [Example 47, 1-(2-(benzo[d][1,3]dioxol-5-ylamino)-5-methyl-pyrimidin-4-yl)-N-(2-hydroxy-1-phenylethyl)-1H-pyrrole-3-carboxamide]
5.60 to 6.30	6.30 to 6.60	6.30 to 6.60	Cc1cnc(Nc2ccc3c(c2)OCO3)nc1-n1cnc(C(=O)N[C@H](CO)c2cccc(Cl)c2)c1 [Example 48, (S)-1-(2-(benzo[d][1,3]dioxol-5-ylamino)-5-methyl-pyrimidin-4-yl)-N-(1-(3-chloro-phenyl)-2-hydroxy-ethyl)-1H-imidazole-4-carboxamide]
< 5.60	5.60 to 6.30	5.60 to 6.30	Cc1cnc(Nc2ccc3c(c2)OCO3)nc1-n1ccc(C(=O)NC(CO)c2cc(Cl)cc(Cl)c2)c1 (stereo not drawn) [Example 58, 1-(2-(benzo[d][1,3]dioxol-5-ylamino)-5-methyl-pyrimidin-4-yl)-N-(1-(3,5-dichloro-phenyl)-2-hydroxy-ethyl)-1H-pyrrole-3-carboxamide]

The remaining lines, values behind:

SMILES	pIC50 [1]	pIC50 [2]	pIC50 [3]
Cc1cnc(Nc2ccccc2)cc1-n1ccc(C(=O)NC(CO)c2ccccc2)c1 (stereo not drawn) [Cmpd 74, N-(2-hydroxy-1-phenylethyl)-1-(5-methyl-2-(phenyl-amino)pyridin-4-yl)-1H-pyrrole-3-carboxamide]	< 5.60	5.60 to 6.30	5.60 to 6.30
O=C(NC(CO)c1cccc(Cl)c1)c1cn(-c2ccnc(Nc3ccccc3)c2)cn1 (stereo not drawn) [Cmpd 77, N-(1-(3-chloro-phenyl)-2-hydroxy-ethyl)-1-(2-(phenyl-amino)pyridin-4-yl)-1H-imidazole-4-carboxamide]	< 5.60	5.60 to 6.30	6.60 to 7.00
Cc1cnc(NC2CCOCC2)nc1-n1cnc(C(=O)NCc2cccc(Cl)c2CO)c1 [Cmpd 93, N-(3-chloro-2-(hydroxy-methyl)benzyl)-1-(5-methyl-2-((tetrahydro-2H-pyran-4-yl)amino)-pyrimidin-4-yl)-1H-imidazole-4-carboxamide]	≥ 7.00	≥ 7.00	≥ 7.00
CC[C@H](CO)Nc1cc(-n2cnc(C(=O)N[C@H](CO)c3cccc(Cl)c3)c2)ccn1 [Cmpd 105, N-((S)-1-(3-chlorophenyl)-2-hydroxy-ethyl)-1-(2-(((R)-1-hydroxy-butan-2-yl)amino)pyridin-4-yl)-1H-imidazole-4-carboxamide]	< 5.60	< 5.60	6.60 to 7.00
O=C(NC(CO)c1cccc(Cl)c1)c1cn(-c2cc(Nc3ccccc3)ncc2Cl)cn1 (stereo not drawn) [Cmpd 106, 1-(5-chloro-2-(phenyl-amino)pyridin-4-yl)-N-(1-(3-chlorophenyl)-2-hydroxy-ethyl)-1H-imidazole-4-carboxamide]	< 5.60	5.60 to 6.30	6.60 to 7.00
Cc1cnc(Nc2ccc3c(c2)OC(F)(F)O3)nc1-n1ccc(C(=O)NC(CN)c2cccc(Cl)c2)c1 (stereo not drawn) [Cmpd 136, N-(2-amino-1-(3-chloro-phenyl)ethyl)-1-(2-((2,2-difluoro-benzo[d][1,3]dioxol-5-yl)amino)-5-methyl-pyrimidin-4-yl)-1H-pyrrole-3-carboxamide]	5.60 to 6.30	5.60 to 6.30	< 5.60
Cc1cnc(Nc2ccc(F)cc2)nc1-n1cc(C(=O)NC(CO)c2ccccc2)nc1C (stereo not drawn) [Cmpd 153, 1-(2-((4-fluoro-phenyl)amino)-5-methyl-pyrimidin-4-yl)-N-(2-hydroxy-1-phenylethyl)-2-methyl-1H-imidazole-4-carboxamide]	< 5.60	< 5.60	< 5.60
Cc1cnc(Nc2ccc(F)cc2)cc1-n1ccc(C(=O)NC(CN)c2cccc(Cl)c2)c1 (stereo not drawn) [Cmpd 159, N-(2-amino-1-(3-chloro-phenyl)ethyl)-1-(2-((4-fluoro-phenyl)amino)-5-methyl-pyridin-4-yl)-1H-pyrrole-3-carboxamide]	5.60 to 6.30	5.60 to 6.30	5.60 to 6.30
O=C(NC(CO)c1cccc(Cl)c1)c1cn(-c2ccnc(Nc3ccc4c(c3)CCO4)c2)cn1 (stereo not drawn) [Cmpd 163, N-(1-(3-chloro-phenyl)-2-hydroxy-ethyl)-1-(2-((2,3-dihydro-benzofuran-5-yl)amino)pyridin-4-yl)-1H-imidazole-4-carboxamide]	< 5.60	5.60 to 6.30	6.60 to 7.00
Cc1cnc(NC2CCOCC2)nc1-n1cnc(C(=O)N[C@H](CN)c2cccc(Cl)c2)c1 [Cmpd 225a]	≥ 7.00	≥ 7.00	≥ 7.00
Cc1cnc(N[C@H]2CCOC2)nc1-n1cnc(C(=O)N[C@H](CO)c2cccc(Cl)c2)c1 [Compound 192, N—((S)-1-(3-Chlorophenyl)-2-hydroxyethyl)-1-(5-methyl-2-(((S)-tetrahydrofuran-3-yl)amino)pyrimidin-4-yl)-1H-imidazole-4-carboxamide]	< 5.60	6.30 to 6.60	6.30 to 6.60
Cc1cnc(NC2CCOCC2)nc1-n1cnc(C(=O)NC(CO)c2cccc(Cl)c2)c1 (stereo not drawn) [Compound 201, N-(1-(3-chlorophenyl)-2-hydroxyethyl)-1-(5-methyl-2-((tetrahydro-2H-pyran-4-yl)amino)pyrimidin-4-yl)-1H-imidazole-4-carboxamide]	5.60 to 6.30	≥ 7.00	6.60 to 7.00
Cc1cnc(NC2CCOCC2)nc1-n1cnc(C(=O)N[C@H](CO)c2cccc(Cl)c2)c1 [Compound 211, (S)—N-(1-(3-chlorophenyl)-2-hydroxyethyl)-1-(5-methyl-2-((tetrahydro-2H-pyran-4-yl)amino)pyrimidin-4-yl)-1H-imidazole-4-carboxamide]	6.60 to 7.00	≥ 7.00	≥ 7.00
